Test results reported in publication PMC12722964, “Immunogenicity risk assessment of peptide-related impurities identified in generic teriparatide products” (Frontiers in Immunology, 2025).
Ends that are not written are not given here.

Legend:
[1] = tested on: eight class II Supertype Alleles (HLA-DRB1); experiment: Class II HLA binding assay, summary over the panel of eight alleles; parameters: species or system human
Method: (§1) Class II HLA binding assays used in these studies measure the binding affinity of a target peptide to HLA-DRB1*0101, HLA-DRB1*0301, HLA-DRB1*0401, HLA-DRB1*0701, HLA-DRB1*0901, HLA-DRB1*1101, HLA-DRB1*1301, and HLA-DRB1*1501. The HLA binding assay was originally described by Steere et al. ([21]) and adapted by EpiVax ([22], [23]). Briefly, unlabeled test peptides were incubated overnight to equilibrium with a soluble HLA-DR molecule (Benaroya Research Institute, Seattle, WA, USA) and a biotinylated, allele-specific competitor peptide of known binding affinity. The binding reaction was then neutralized with a buffered pH change, and the peptide-HLA complexes were transferred to a 96-well plate coated with a pan-HLA-DR antibody, clone L243 (BioLegend, San Diego, CA, United States), and incubated overnight. The following day, plates were resolved with the addition of europium-labeled streptavidin (Perkin-Elmer, Waltham, MA, USA). An indirect measure of binding was determined by time-resolved fluorescence. Each peptide was evaluated in triplicate over a range of seven concentrations. The percent inhibition values for each experimental peptide across this concentration range were used to calculate an IC50, the concentration at which the peptide inhibits 50% of the labeled competitor peptide.
Following the in silico analysis, epitope binding predictions by EpiMatrix were evaluated in vitro by measuring the binding affinity of each impurity peptide relative to the corresponding N- or C-terminal portion of the TPT API, in vitro. The class II HLA-DRB1 binding assay was adapted from an assay originally described by Steere et al. ([21]) that provides an indirect measurement of peptide-HLA affinity. Class II HLA binding peptides typically range in length from 12–20 amino acids; however, the core HLA binding region is nine amino acids. The class II HLA binding groove is open-ended, and the additional flanking residues on either end of the core binding motif stabilize the peptide: HLA binding interaction. […]

[2] = Overall risk based on in silico and in vitro results; details: EpiMatrix and JanusMatrix scores compared with naïve donor T-cell assay
Description: Table 4 Overall risk based on in silico and in vitro results. | column: Overall risk

HLA-DRB1*0401 = molecular target: T1, HLA-DRB1*0401 (Homo sapiens, UniProt P01903+P01911, A100K/A169T/F76Y/I96L/K127E/L162R/M171V/N62H/P40V/Q125Y/R42H/S133A/S149N/S66Y/V115G/V209L/W38E); experiment: Class II HLA binding assay; details: Figure 6; shortened peptides of Table 3; category by IC50; read-out: HLA binding affinity category, DRB1*0401
T1 construct: incubated overnight to equilibrium with a soluble HLA-DR molecule; purchased Benaroya Research Institute, Seattle, WA, USA
Method: as §1
(§2) Following the in silico analysis, epitope binding predictions by EpiMatrix were evaluated in vitro by measuring the binding affinity of each impurity peptide relative to the corresponding N- or C-terminal portion of the TPT API, in vitro. The class II HLA-DRB1 binding assay was adapted from an assay originally described by Steere et al. ([21]) that provides an indirect measurement of peptide-HLA affinity. Class II HLA binding peptides typically range in length from 12–20 amino acids; however, the core HLA binding region is nine amino acids. The class II HLA binding groove is open-ended, and the additional flanking residues on either end of the core binding motif stabilize the peptide: HLA binding interaction. Targeted binding motifs were properly centered within the shorter length peptides synthesized for these binding studies (Table 3).

HLA-DRB1*0701 = HLA-DRB1*0701 (Homo sapiens, UniProt P01903+P01911, A100R/A102G/A103Q/D57E/D86V/E43K/F76Y/K127E/L162R/M171V/P40G/Q125H/Q99D/R33Q/R42Y/R54Q/S133A/S66F/T210M/V115G/Y107V/Y59L/Y89S); experiment: Class II HLA binding assay; details: Figure 6; shortened peptides of Table 3; category by IC50; read-out: HLA binding affinity category, DRB1*0701
Method: as §1, §2

HLA-DRB1*1101 = HLA-DRB1*1101 (Homo sapiens, UniProt P01903+P01911, A100R/A169T/A87E/I96F/K41T/L162R/M171V/P40S/Q125H/Q178H/Q39Y/Q99D/R42S/S66Y/T262R/V115G/W38E); experiment: Class II HLA binding assay; details: Figure 6; shortened peptides of Table 3; category by IC50; read-out: HLA binding affinity category, DRB1*1101
Chain of HLA-DRB1*1101 (P01903 26-254 limits assumed, other chains not shown): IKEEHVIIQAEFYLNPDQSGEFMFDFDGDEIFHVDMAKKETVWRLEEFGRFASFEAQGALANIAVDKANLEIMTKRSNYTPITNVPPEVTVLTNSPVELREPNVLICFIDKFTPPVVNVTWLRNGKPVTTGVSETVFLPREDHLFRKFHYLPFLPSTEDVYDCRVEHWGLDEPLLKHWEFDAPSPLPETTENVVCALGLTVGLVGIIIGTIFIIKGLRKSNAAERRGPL
Method: as §1, §2

HLA-DRB1*1501 = molecular target: T2, HLA-DRB1*1501 (Homo sapiens, UniProt P01903+P01911); experiment: Class II HLA binding assay; details: Figure 6; shortened peptides of Table 3; category by IC50; read-out: HLA binding affinity category, DRB1*1501
T2 construct: incubated overnight to equilibrium with a soluble HLA-DR molecule; purchased Benaroya Research Institute, Seattle, WA, USA
Method: as §1, §2

HLA-DRB1*0301 = molecular target: T3, HLA-DRB1*0301 (Homo sapiens, UniProt P01903+P01911, A100K/A102G/A103R/A169T/F55Y/I96L/K41T/L162R/M171V/P40S/Q125H/Q178H/Q39Y/R42S/S66N/T106N/T262R/W38E/Y61H); experiment: Class II HLA binding assay; details: Figure 6; shortened peptides of Table 3; category by IC50; read-out: HLA binding affinity category, DRB1*0301
T3 construct: incubated overnight to equilibrium with a soluble HLA-DR molecule; purchased Benaroya Research Institute, Seattle, WA, USA
Method: as §1, §2

HLA-DRB1*0901 = HLA-DRB1*0901 (Homo sapiens, UniProt P01903+P01911, A100R/A103E/D57H/D86V/F55Y/F60I/F76Y/I96F/K127E/L162R/M171V/P40D/Q125H/Q99R/R33Q/R42F/S133A/S66N/T210M/V115G/W38K/Y107V/Y59G/Y89S); experiment: Class II HLA binding assay; details: Figure 6; shortened peptides of Table 3; category by IC50; read-out: HLA binding affinity category, DRB1*0901
Method: as §1, §2

HLA-DRB1*1301 = HLA-DRB1*1301 (Homo sapiens, UniProt P01903+P01911, A100E/A169T/K41T/L162R/M171V/P40S/Q125H/Q178H/Q39Y/Q99D/R42S/S66N/T262R/W38E/Y61H); experiment: Class II HLA binding assay; details: Figure 6; shortened peptides of Table 3; category by IC50; read-out: HLA binding affinity category, DRB1*1301
Method: as §1, §2

HLA-DRB1*0101 = molecular target: T4, HLA-DRB1*0101 (Homo sapiens, UniProt P01903+P01911, A100R/D57E/F55L/F60I/F76Y/I96L/L162R/M171V/P40L/Q125E/R42F/V115G/Y59C); experiment: Class II HLA binding assay; details: Figure 6; shortened peptides of Table 3; category by IC50; read-out: HLA binding affinity category, DRB1*0101
T4 construct: incubated overnight to equilibrium with a soluble HLA-DR molecule; purchased Benaroya Research Institute, Seattle, WA, USA
Method: as §1, §2

[3] = human, in vivo; cited from earlier work
Description: Teriparatide (TPT), sold under the brand name Forteo®, is a 34-amino acid peptide drug produced by recombinant DNA (rDNA) technology. Synthetic peptide versions of the drug have recently been approved for the generic drug market. TPT consists of the biologically active N-terminal 34 amino acids of human parathyroid hormone (PTH) (Figure 1) and is approved in the USA for the treatment of postmenopausal osteoporosis in patients at high risk of bone fracture. Since TPT’s sequence is identical to that of the N-terminus of PTH, the development of antibodies that cross-react with the endogenous hor ... || TPT has a history of having low immunogenicity in the clinic, with only 2.8% of treated patients developing antidrug antibodies after 12 months of treatment. Consistent with this, TPT induced IFN-γ production by responding T cells in fewer than 20% of donor cell preparations ex vivo. However, because different impurities can arise from different methods of peptide synthesis and production, it is important to understand whether any peptide-related impurities could contribute to the immunogenicity risk of generic TPT. Here, we performed an immunogenicity risk assessment for several peptide-relat ...

B cells = tested on: B cells; parameters: method as in 2 sources, one per row (each row's own in cited_ref): ref Howard et al. ([38]) ||| ref [37] = [37]; 37 Howard KE . ( 2025 ). Alternative models: from humanized mice to microphysiological systems and beyond , in: Scientific and Regulatory Considerations for Assessment of Immunogenicity Risk for Gener; details: cited from earlier work

## SVSEIQLMHNLGKHLNSMERVEWLR(K-Ac)KLQDVHNF [LYS-AC26_TERIPARATIDE, observed teriparatide impurity, Lys26 acetylated]
[1]; shorter peptide with the modification centered
  classification in the HLA binding assays: nonbinder
[2]
  Overall risk: High

## SVSEIQLMHNLLGKHLNSMERVEWLRKKLQDVHNF [ENDO-LEU11_TERIPARATIDE, theoretical teriparatide impurity predicted by WhIM, duplication of Leu11]
[2]
  Overall risk: High

## SVSEIQLMHNLG–HLNSMERVEWLRKKLQDVHNF [DES-LYS13_TERIPARATIDE, observed teriparatide impurity, deletion of Lys13]
[2]
  Overall risk: High

## MERVEWLRKKLQDVHNF-OH [API_TPT (18-34) C-term]
HLA-DRB1*0401
  IC50: > 100 µM
HLA-DRB1*0701
  IC50: > 100 µM
HLA-DRB1*1101
  IC50: 0.1 to 1 µM
HLA-DRB1*1501
  IC50: ≥ 100 µM
HLA-DRB1*0301
  IC50: > 100 µM
HLA-DRB1*0901
  IC50: > 100 µM
HLA-DRB1*1301
  IC50: 1 to 10 µM
HLA-DRB1*0101
  IC50: > 100 µM
[1]; of eight alleles evaluated, negligible to high affinity counted as bound
  number of the eight class II Supertype Alleles bound: three

## MERVEWLRK(Ac)KLQDVHNF [LYS-AC26_TPT (18-34)]
HLA-DRB1*0401
  IC50: > 100 µM
HLA-DRB1*0701
  IC50: > 100 µM
HLA-DRB1*1101
  IC50: > 100 µM
HLA-DRB1*1501
  IC50: > 100 µM
HLA-DRB1*0301
  IC50: > 100 µM
HLA-DRB1*0901
  IC50: > 100 µM
HLA-DRB1*1301
  IC50: > 100 µM
HLA-DRB1*0101
  IC50: > 100 µM

## SVSEIQLMHNLGKHLNSMERVEWLRKK–QDVHNF [DES-LEU28_TERIPARATIDE, observed teriparatide impurity, deletion of Leu28]
[2]
  Overall risk: Low

## SVSEIQLMHNLGKHLNSMERVEWLRKKLQDVHNF [TERIPARATIDE, teriparatide]
[3]
  treated patients developing antidrug antibodies (ADA): 2.8%
[2]
  Overall risk: Low
B cells; at multiple doses, in contrast to SCT, ref Howard et al. ([38])
  immunogenicity (as measured by activation of B cells): lower immunogenicity

## SVSEIQ–MHNLGKHLNSMERVEWLRKKLQDVHNF [DES-LEU7_TERIPARATIDE, observed teriparatide impurity, deletion of Leu7]
[1]; impurity peptides alongside N-term or C-term TPT API peptide
  binding affinity compared to the corresponding region of the API: decreased or equivalent binding affinity
[2]
  Overall risk: Medium

## SVSEIQLMHNL–KHLNSMERVEWLRKKLQDVHNF [DES-GLY12_TERIPARATIDE, theoretical teriparatide impurity predicted by WhIM, deletion of Gly12]
[2]
  Overall risk: High

## SVSEIQLMHNLGK–LNSMERVEWLRKKLQDVHNF [DES-HIS14_TERIPARATIDE, observed teriparatide impurity, deletion of His14]
[2]
  Overall risk: High

## SVSEIQLM–NLGKHLNSMERVEWLRKKLQDVHNF [DES-HIS9_TERIPARATIDE, observed teriparatide impurity, deletion of His9]
[2]
  Overall risk: High

## MERVEWLRKKQDVHNF [DES-LEU28_TPT (18-33)]
HLA-DRB1*0401
  IC50: > 100 µM
HLA-DRB1*0701
  IC50: > 100 µM
HLA-DRB1*1101
  IC50: 1 to 10 µM
HLA-DRB1*1501
  IC50: ≥ 100 µM
HLA-DRB1*0301
  IC50: > 100 µM
HLA-DRB1*0901
  IC50: > 100 µM
HLA-DRB1*1301
  IC50: 0.1 to 1 µM
HLA-DRB1*0101
  IC50: > 100 µM

## salmon calcitonin [SCT]
B cells; SCT-treated mice compared to TPT, ref [37]
  long-term memory B cells and plasma cells: Increased numbers

## SVSEIQLMHN–GKHLNSMERVEWLRKKLQDVHNF [DES-LEU11_TERIPARATIDE, observed teriparatide impurity, deletion of Leu11]
[2]
  Overall risk: High
